Reference: publication PMC11555717 (Cancer Medicine, 2024)
Entries after “also recorded” stand apart in the source; their conditions may differ. Marks after values point to notes of the source that are not given here.

Key:
[1] = tested on: Chinese patients with previously treated locally advanced or metastatic urothelial carcinoma; assay: EV-203 phase 2: antitumor activity per RECIST v1.1 (IRC and investigator), PFS, OS; assay type: in vivo, human; settings: for Confirmed disease control rate (95% CI): CR, PR or stable disease; for Duration of response, median (95% CI): NE = not evaluable; for Confirmed best overall response: Stable disease: minimum duration 49 days; for Confirmed objective response rate (95% CI): RECIST v1.1, 1.25 mg/kg
Text: This was a single‐arm, open‐label phase 2 study that enrolled patients from six centers in China. Up to 40 patients were planned for enrollment. Two of the study centers were designated as PK cohort sites and planned to enroll 12 or more patients who agreed to intensive PK sampling for PK analysis in addition to safety and efficacy assessments.
The study enrolled Chinese adults (age ≥ 18 years or considered an adult per local regulations) with histologically or cytologically confirmed UC/transitional cell carcinoma of the bladder, renal pelvis, ureter, or urethra not amenable to curative intent treatment. Patients with other histologies, including adenocarcinoma, squamous differentiation, or mixed, were also eligible. Patients must have received prior treatment with platinum‐based chemotherapy and PD‐1/L1 inhibitor therapy in the locally advanced or metastatic setting or in the neoadjuvant or adjuvant setting with recurrence or progressive disease during therapy or within 12 months (platinum‐based chemotherapy) or 3 months (PD‐1/L1 inhibitor) of completion of treatment; had baseline measurable disease according to Response Evaluation Criteria in Solid Tumors (RECIST) version 1.1; and an Eastern Cooperative Oncology Group performance status (ECOG PS) of 0–1. Key exclusion criteria were preexisting grade 2 or higher sensory/motor neuropathy; active central nervous system metastases; clinically significant toxicity associated with prior treatment; ongoing grade 3 or higher immunotherapy‐related hypothyroidism or panhypopituitarism, ongoing immunotherapy‐related colitis, uveitis, myocarditis, or pneumonitis; other immunotherapy‐related adverse events (AEs) requiring high‐dose steroids (prednisone > 20 mg/day or equivalent); or history of uncontrolled diabetes mellitus (glycated hemoglobin ≥ 8% or between 7% and < 8% with diabetes‐related symptoms not otherwise explained) within 3 months prior to the first study dose.
Study treatment continued until one or more of the following occurred: patient or investigator decision; documented radiologic disease progression per RECIST version 1.1 by investigator assessment; start of new anticancer therapy; unacceptable toxicity; pregnancy; protocol noncompliance; or more than six consecutive doses of study treatment missed by the patient. Prespecified dose modifications were permitted depending on AE type and severity.
Antitumor activity was assessed every 8 weeks (±1 week) via computed tomography with contrast. After 1 year of study, imaging frequency was reduced to every 12 weeks (±1 week). Complete response (CR) and partial response (PR; per RECIST version 1.1) were confirmed by repeat scans conducted at least 4 weeks after the initial response. Responses were assessed by investigators and an independent review committee (IRC). Tumor assessments were continued until the study end or the first occurrence of radiologic disease progression per RECIST version 1.1, as determined by investigator assessment, the patient initiated new anticancer therapy, or the patient died, withdrew study consent, or was lost to follow‐up.
The primary efficacy endpoint was confirmed ORR as assessed by IRC. The ORR was defined as the proportion of patients with CR or PR according to RECIST version 1.1. […] Other primary endpoints included selected PK parameters of ADC, TAb, and free MMAE.
Secondary endpoints were confirmed ORR by investigator assessment; DOR, disease control rate (DCR), and progression‐free survival (PFS) by IRC and investigator assessments; OS; incidence of ATAs to ADC; and safety/tolerability. PFS was defined as the time from the start of the study treatment to the first documentation of objective tumor progression (i.e., progressive disease per RECIST version 1.1) by IRC or investigator assessment (whichever was specified) or to death due to any cause, whichever came first. OS was defined as the time from the start of study treatment to the date of death due to any cause. […]

[2] = tested on: patients with previously treated locally advanced or mUC; settings: EV-301; cited from earlier work
[3] = EV-203 pharmacokinetics of ADC, TAb and free MMAE in serum or plasma; assay type: in vivo, human; settings: for Serum concentration at end of infusion / AUC0–7d / C max: mean (SD); for AUC0–7d: 1.25 mg/kg IV
Experimental: In the PK cohort (i.e., PK analysis set), intensive PK sampling was performed wherein blood samples for analysis of ADC, total antibody (TAb), and free (unconjugated) MMAE were collected at prespecified time points. […] Blood samples for antitherapeutic antibodies (ATAs) were collected predose on Day 1 of cycles 1 to 4, 6, 8, 10, and within 30–37 days after the last study dose. Validated assays were used to measure concentrations of ADC, TAb, and free MMAE in serum or plasma and to assess ATA levels.
All patients who received any amount of study drug were included in the primary analyses of efficacy endpoints and safety analyses. The PK analyses included data from patients in the PK cohort who received at least 3 of 4 doses of the study drug through cycle 2 Day 1 and had at least five blood samples collected and assayed for measurements of ADC, TAb, or free MMAE concentrations to determine at least one PK parameter.

[4] = tested on: patients with locally advanced or mUC previously treated with platinum-based chemotherapy and PD-1/L1 inhibitors; settings: cited from earlier work
[5] = serum, Cycle 1 Day 1, PK cohort
[6] = serum, Cycle 1 Day 15, PK cohort

## enfortumab vedotin: fully human monoclonal ADC directed to Nectin-4, delivering intracellular monomethyl auristatin E (MMAE) to tumor cells
[1]; IRC assessment
  Median time to response: 1.8 (range, 1.7–3.8) months
[1]; IRC assessment, N = 40
  Median PFS: 4.7 months
[1]; IRC, 14 patients
  Best overall response PR, patients: 35.0%
[1]; IRC, 24 of 37 patients
  Patients with reductions of 30% or more from baseline in target lesions: 64.9%
[1]; IRC, 33 of 37 patients with baseline and postbaseline assessments
  Patients with reduction in sum of diameters of target lesions from baseline: 89.2%
[1]; IRC, N = 40
  Confirmed disease control rate (95% CI): 72.5 (56.1–85.4) %
  Confirmed best overall response: CR: 1 (2.5) n (%)
  Confirmed best overall response: NE (not evaluable): 4 (10.0) n (%)
  Confirmed best overall response: PR: 14 (35.0) n (%)
  Confirmed best overall response: Progressive disease: 7 (17.5) n (%)
  Confirmed best overall response: Stable disease: 14 (35.0) n (%)
  Confirmed objective response rate (95% CI): 37.5 (22.7–54.2) ^b %
[1]; IRC, Kaplan–Meier
  Rate of duration of response (95% CI) at 6 months: 59.7 (22.2–83.8) %
  Duration of response, median (95% CI): not reached; also recorded: NE (2.04–NE)
[1]; IRC, n/N = 5/11
  ORR, subgroup patients with liver metastases: 45.5%
[1]; IRC, n/N = 6/18
  ORR, subgroup three or more lines of systemic therapy: 33.3%
[1]; IRC, n/N = 7/10
  ORR, subgroup baseline ECOG PS of 0: 70.0%
[1]; IRC, n/N = 7/11
  ORR, subgroup primary tumor site bladder or other: 63.6%
[1]; IRC, n/N = 8/29
  ORR, subgroup primary tumor site upper tract: 27.6%
[1]; IRC, n/N = 8/30
  ORR, subgroup baseline ECOG PS of 1: 26.7%
[1]; IRC, one patient
  Best overall response CR, patients: 2.5%
[1]; Investigator, N = 40
  Confirmed disease control rate (95% CI): 82.5 (67.2–92.7) %
  Confirmed best overall response: CR: 0 n (%)
  Confirmed best overall response: NE (not evaluable): 3 (7.5) n (%)
  Confirmed best overall response: PR: 17 (42.5) n (%)
  Confirmed best overall response: Progressive disease: 4 (10.0) n (%)
  Confirmed best overall response: Stable disease: 16 (40.0) n (%)
  Confirmed objective response rate (95% CI): 42.5 (27.0–59.1) %
[1]; Investigator, Kaplan–Meier
  Rate of duration of response (95% CI) at 6 months: 61.1 (26.2–83.4) %
  Duration of response, median (95% CI): not reached; also recorded: NE (2.04–NE)
[1]; Kaplan–Meier, N = 40
  Overall survival at 6 months (95% CI): 78.0 (60.1–88.6) %
[1]; investigator assessment, N = 40
  Median PFS: 4.2 months
[1]; median follow-up 6.5 months
  Median OS: not reached (lower bound of 95% CI: 6.74)
[2]
  Median OS: 12.88 months
  Median PFS: 5.6 months
  Probability of OS at 6 months: approximately 80%
[3]; cycle 1 Day 1, Non-PK cohort
  Serum concentration at end of infusion: 25,300 (3830) [23] ng/mL
[3]; cycle 1 Day 1, PK cohort
  Serum concentration at end of infusion: 27,700 (4410) [13] ng/mL
[3]; cycle 1 Day 8, Non-PK cohort
  Serum concentration at end of infusion: 24,900 (5400) [17] ng/mL
[3]; cycle 1 Day 8, PK cohort
  Serum concentration at end of infusion: 27,400 (4390) [12] ng/mL
[3]; cycle 1 Day 15, Non-PK cohort
  Serum concentration at end of infusion: 22,000 (5980) [11] ng/mL
[3]; cycle 1 Day 15, PK cohort
  Serum concentration at end of infusion: 27,500 (3820) [10] ng/mL
[3]; [5]
  AUC0–7d: 32.4 (6.2) day μg/mL
  C max: 28.1 (4.52) μg/mL
[3]; [6]
  AUC0–7d: 36.5 (7.9) day μg/mL
  C max: 27.6 (4.01) μg/mL
[3]; serum, PK cohort cycle 1
  Time of peak serum concentration: at the end of the enfortumab vedotin infusion
[4]; EV-201
  Median duration of response (DOR): 7.6 months
[4]; EV-201 cohort 1 (n = 125)
  Objective response rate (ORR): 44%
